Experimental data reported in US11680086B2, “Lipopeptide for potently inhibiting HIV, derivative thereof, pharmaceutical composition thereof and use thereof” (Institute of Pathogen Biology, Chinese Academy of Medical …, priority 2017, dated 2023).
Peptide text beside a SMILES is read from it. * marks the point of attachment. Palmitoyl = CCCCCCCCCCCCCCCC(=O)*

How the values were obtained:
[1] = tested on: HXB2-mediated cell fusion (HL2/3 effector cells, TZM-b1 target cells); format: cell-based, HIV-1
Experimental: HIV-1 mediated cell fusion inhibition assay: the effector cells (HL2/3 cells) and target cells (TZM-b1 cells) were provided by the AIDS Reagent Program of National Institutes of Health (NIH) (catalog numbers: 1294 and 8129, respectively). The both cells were adherent cells and were cultured in a DMEM cell culture medium containing ampicillin/streptomycin double antibiotics and 10% fetal bovine serum (FBS). The TZM-b1 was first added to a 96-well cell culture plate (1×10^4 cells/well), and cultured overnight at 37° C. and 5% CO2. The test substance was diluted with the DMEM cell culture medium by 3 folds and mixed with HL2/3 effector cells (3×10^4 cells/well), then added to the TZM-b1 target cells, and further cultured for 6 hours to fully fuse. The activity of luciferase (relative fluorescence units, RLU) was then determined using a luciferase reporter gene kit from Promega company according to the instructions. The inhibition rate of each sample at each concentration was calculated, and the half effective inhibitory concentration (IC50 value) was calculated using GraphPad Prism Software 2.01.

HIV-1 strain JRCSF = format: cell-based
Experimental: (§1) Inhibition rate (%) and IC50 value were calculated.

[2] = tested on: SIV pseudoviruses SIVpbj and SIV239; assay: inhibition of SIV pseudoviruses; format: cell-based
Experimental: (§2) The supernatant was discarded from the wells. […] Inhibition rate (%) and IC50 value were calculated.
(§3) In order to further reflect the antiviral advantages of the potent lipopeptides of the present invention, their inhibitory activity against HIV-2 and SIV was determined in the example. The methods of antiviral activity assays used were described in the literatures published by the present inventors (see the References 13 and 30 listed in the Background Art). The molecular cloning plasmid pROD of the HIV-2 strain ROD (HIV-2ROD) was kindly provided by Professor Nuno Taveira from the University of Lisbon, Portugal, and the plasmids expressing the SIV strain SIVpbj (SIVPBJ) and SIV239 envelope proteins (pSIVpbj-Env and pSIV239, respectively) were kindly provided by Professor Xu Jianqing from the Fudan University. The preparation of the infectious ROD was the same as that of the infectious JRCSF in the above section 2.1, and the pseudoviruses SIVpbj and SIV239 were prepared by a method same as that described in the above Examples 2 and 3.

[3] = tested on: HIV-1 strain NL4-3 pseudovirus (D36G mutant); format: cell-based
Experimental: as §2

[4] = tested on: NL4-3 pseudovirus carrying T-20 resistance mutation site of NHR; assay: inhibition of T-20 resistant strains; format: cell-based, HIV-1; details: strains with single or double mutations
[5] = biological target: N39 (NHR-derived polypeptide of gp41) (Human immunodeficiency virus type 1 group M subtype B, UniProt P04578); format: binding, HIV-1; details: 10 μM each, PBS pH 7.2
Experimental: (§4) The circular dichroism spectrophotometer was Jasco-815 by JASCO Inc., and the assay method was referred to the papers published by the inventors (see the References 18 and 30 listed in the Background Art). […] The N39 and an inhibitor were separately dissolved in a phosphate buffered saline (PBS) to prepare a PBS solution (pH 7.2) of a concentration of 20 μM. The N39 was mixed with an inhibitor at a volume ratio of 1:1 (final concentration of 10 μM for each), the mixed sample was placed at 37° C. for 30 minutes to fully react, and then the helix content and Tm value of the resultant complex were measured by the circular dichroism spectrophotometer. The scan wavelength range of the device was 195-260 nm with a wavelength interval of 1 nm, and the values measured by scanning for three times were averaged. Based on the CD signals, the interaction between the polypeptides and the helix content were determined. Then, the sample for CD signal measurement was transferred to the temperature scanning sample cell, the program of the CD device was set to temperature scanning with a detection wavelength of 220 nm and scanning range of 20-98° C., and the program scan was performed to obtain the curve of the CD signals vs temperature, based on which the Tm value was calculated. Based on the Tm value, the stability of the formed helical structure of the inhibitor and N39 was judged.

[6] = circular dichroism secondary structure analysis of the inhibitors themselves; format: physicochemical; details: 10 μM, 20 μM and 40 μM in PBS
Experimental: as §4
For easy analysis, the α-helix content and the Tm value of the inhibitors were measured at concentrations of 10 μM, 20 μM, and 40 μM (PBS solution), respectively.

[7] = tested on: 35 HIV-1 pseudoviruses (subtypes A, B, B', C, G, A/C, A/E, B/C); details: for IC50: read-out: average IC50 for inhibition of various types of HIV-1 pseudoviruses, average over 35 pseudoviruses; for inhibitory activity against different subtypes of HIV-1 as folds of T-20: relative to T-20, from average IC50
Source text: HIV-1 pseudovirus-mediated cell entry inhibition assay: basic steps included: (1) Preparation of HIV-1 pseudovirus: the 293T cells were co-transfected with a plasmid expressing the envelope protein (Env) of HIV-1 strain NL4-3 (i.e., a recombinant expression plasmid obtained by inserting the gene encoding the envelope protein (ENV) of the D36G mutant of the HIV-1 strain NL4-3 in the Table 2 of the Reference 14 listed in the Background Art into the vector pcDNA3.1(−)) and the HIV-1 backbone plasmid pSG3Δenv (provided by the AIDS Reagent Program of National Institutes of Health (NIH), catalog number: 11051) by using a cell transfection reagent, incubated in a cell incubator of 37° C. and 5% CO2 for 6 hours, and then the medium was changed, and the cells were further incubated for 48 hours. The cell culture supernatant containing pseudovirus particles was pipetted and filtered with a 0.45 μm filter to collect the supernatant, then 20% fetal bovine serum (FBS) was added thereto, the final solution was transferred to a polypropylene tube, and stored at −80° C. for ready for use or directly subjected to virus titration. (2) Titration of HIV-1 pseudovirus: the viruses were diluted by 5 folds in a 96-well plate, and 4 replicate wells with 8 gradients were set to a final volume of 100 microliters. The TZM-b1 cells were trypsinized and counted, and the cells were diluted to 1×10^5 cells/ml with DMEM complete medium; 100 μl of cells dilution (containing 15 μg/ml DEAE-dextran) per well were added and cultured at 37° C. and 5% CO2 for 48 hours. The 96-well plate was then taken from the cell culture incubator. The supernatant was discarded from the wells. To each well, 30 μl of a cell lysate was added, and after 10 minutes, 100 μl of a luciferase detection reagent was added. 100 μl of liquid was pipetted from each well and added to a corresponding 96-well white plate, and the luminescence values were read by a microplate photometer. The virus titer was calculated by the Reed-Muench method. (3) Antiviral activity assay: the test substance was dissolved in DMSO and diluted with a cell culture solution by 3 folds, and placed in a 96-well plate at a final volume of […]. 50 μl of a DMEM medium was used in place of the test substance as a negative control. To each well, 100 μl of TZM-b1 target cells solution (containing 15 μg/ml DEAE-dextran) at a concentration of 1×10^5 cells/ml was added, and then 50 μl (corresponding to 100 TCID50 per well) of the HIV-1 pseudovirus obtained above was added. After incubation at 37° C. and 5% CO2 for 48 hours, the relative light units (RLU) of each well were determined by using a luciferase detection reagent (Promega). Inhibition rate (%) and IC50 value were calculated.
Among them, the A, B and C subtypes were the main viruses causing AIDS epidemic in the world, while B/C and A/E recombinant viruses were the main viruses in China. […] Among the Env expression plasmids used for the preparation of pseudoviral, except that the Env expression plasmids used for preparation of PVO, Du156 and CAP 210.2.00.E8 were obtained from the AIDS Reagent Program of NIH in the United states, other plasmids were preserved by the laboratory of Prof. He Yuxian, Institute of Pathogen Biology, Chinese Academy of Medical Sciences, please see the References 13, 14 and 18 listed in the Background Art and articles of Chong et al. (Chong H, Yao X, Zhang C, Cai L, Cui S, Wang Y, He Y. Biophysical property and broad anti-HIV activity of Albuvirtide, a 3-maleimimidoproprotionic acid-modified peptide fusion inhibitor. PLoS One, 2012; 7 (3): e 32599). The preparation of the pseudovirus and the antiviral assay were the same as those in Example 2.1 of Example 2 (HIV-1 pseudovirus-mediated cell entry inhibition assay).

[8] = tested on: HIV-2 strain ROD (infectious); assay: inhibition of HIV-2; format: cell-based; details: HIV-2 ROD
Experimental: as §1, §3

Sequence of N39 (NHR-derived polypeptide of gp41) (P04578 528-566): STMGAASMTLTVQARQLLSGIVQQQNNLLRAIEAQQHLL

| Structure (SMILES) | IC50 ([1]; HXB2-cell fusion, read-out: IC50 for inhibiting cell fusion) [pM] | inhibitory activity as folds of that of T-20 ([1]; HXB2-mediated cell fusion, relative to T-20) [folds] | inhibitory activity as folds of that of LP-40 ([1]; cell fusion, relative to LP-40) [folds] | inhibitory activity as folds of that of T-20 (HIV-1 strain JRCSF; JRCSF replication, relative to T-20) [folds] | IC50 (HIV-1 strain JRCSF; Replication of JRCSF, read-out: IC50 for inhibiting replicative virus) [pM] | inhibitory activity as folds of that of LP-40 (HIV-1 strain JRCSF; replicative virus, relative to LP-40) [folds] | inhibitory activity against SIV (in words) [2] | IC50 ([3]; Entry of NL4-3 (D36G), read-out: IC50 for inhibiting pseudovirus) [pM] | inhibitory activity as folds of that of T-20 ([3]; NL4-3 pseudovirus entry, relative to T-20) [folds] | inhibitory activity as folds of that of LP-40 ([3]; pseudovirus, relative to LP-40) [folds] | inhibitory activity against T-20 resistant strains (in words) [4] | Tm value of the complex with N39 [5] [°C] | secondary structure of the inhibitor itself (in words) [6] | IC50 [7] [pM] | inhibitory activity against different subtypes of HIV-1 as folds of T-20 [7] [folds] | inhibitory activity against HIV-2 (in words) [8] | inhibitory activity against HXB2-cell fusion (in words) ([1]; compared with template LP-52) | decrease of inhibitory activity against JRCSF infection (HIV-1 strain JRCSF; compared with template LP-52) | decrease of inhibitory activity against NL4-3 infection ([3]; compared with template LP-52) | helix content of the complex with N39 [5] [%] |
| --- | --- | --- | --- | --- | --- | --- | --- | --- | --- | --- | --- | --- | --- | --- | --- | --- | --- | --- | --- | --- |
| CCCCCCCCCCCCCCCC(=O)NCCCC[C@H](NC(=O)[C@H](CCC(=O)O)NC(=O)[C@H](CC(C)C)NC(=O)[C@H](CCCCN)NC(=O)[C@H](CCCCN)NC(=O)[C@H](CC(C)C)NC(=O)[C@H](CCC(=O)O)NC(=O)[C@H](CCC(=O)O)NC(=O)[C@H](CCC(=O)O)NC(=O)[C@H](CC(N)=O)NC(=O)[C@H](CCCCN)NC(=O)[C@H](CCCCN)NC(=O)[C@H](CCC(N)=O)NC(=O)[C@H](CCC(N)=O)NC(=O)[C@H](CCC(=O)O)NC(=O)[C@H](CCC(=O)O)NC(=O)[C@H](CO)NC(=O)[C@H](CCCCN)NC(=O)[C@H](CCCCN)NC(=O)[C@@H](NC(=O)[C@H](CC(C)C)NC(=O)[C@H](CCC(=O)O)NC(=O)[C@H](CCC(=O)O)NC(=O)[C@@H](NC(=O)[C@H](CC(C)C)NC(=O)[C@H](CO)NC(=O)[C@@H](NC(=O)[C@H](Cc1ccc(O)cc1)NC(C)=O)[C@@H](C)O)[C@@H](C)CC)[C@@H](C)CC)C(N)=O [LP-50] (Ac-YTSLIEELIKKSEEQQKKNEEELKKLEK(Palmitoyl)-NH2) | 21 | 1151 | 20 | 226 | 23 | 12 | extremely potent inhibitory activity | 7 | 1345 | 63 | further improved by hundreds or even thousands of folds | 63.3 | distinct helical structure | 41 | 1010 | extremely potent inhibitory activity |  |  |  |  |
| CCCCCCCCCCCCCCCC(=O)NCCCC[C@H](NC(=O)[C@H](CCCCN)NC(=O)[C@H](CC(C)C)NC(=O)[C@H](CCC(=O)O)NC(=O)[C@H](CCC(=O)O)NC(=O)[C@H](CCC(=O)O)NC(=O)[C@H](CC(N)=O)NC(=O)[C@H](CCCCN)NC(=O)[C@H](CCCCN)NC(=O)[C@H](CCC(N)=O)NC(=O)[C@H](CCC(N)=O)NC(=O)[C@H](CCC(=O)O)NC(=O)[C@H](CCC(=O)O)NC(=O)[C@H](C)NC(=O)[C@H](CCCCN)NC(=O)[C@H](CCCCN)NC(=O)[C@H](CC(C)C)NC(=O)[C@H](CC(C)C)NC(=O)[C@H](CCC(=O)O)NC(=O)[C@H](CCC(=O)O)NC(=O)[C@@H](NC(=O)[C@H](CCCCN)NC(=O)[C@H](CCC(N)=O)NC(=O)[C@H](CCC(=O)O)NC(=O)[C@H](Cc1c[nH]c2ccccc12)NC(C)=O)[C@@H](C)CC)C(N)=O [LP-55] (Ac-WEQKIEELLKKAEEQQKKNEEELKK(Palmitoyl)-NH2) |  |  |  |  |  |  | significantly affected the activity |  |  |  | much lower active against T-20 resistant mutant strains than the LP-52 and LP-80 | 63.1 |  | 34 | 1218 | significantly affected the activity | essentially unchanged | about 2 fold | about 2 fold |  |
| CCCCCCCCCCCCCCCC(=O)NCCCC[C@H](NC(=O)[C@H](CCC(=O)O)NC(=O)[C@H](CC(C)C)NC(=O)[C@H](CCCCN)NC(=O)[C@H](CCCCN)NC(=O)[C@H](CC(C)C)NC(=O)[C@H](CCC(=O)O)NC(=O)[C@H](CCC(=O)O)NC(=O)[C@H](CCC(=O)O)NC(=O)[C@H](CC(N)=O)NC(=O)[C@H](CCCCN)NC(=O)[C@H](CCCCN)NC(=O)[C@H](CCC(N)=O)NC(=O)[C@H](CCC(N)=O)NC(=O)[C@H](CCC(=O)O)NC(=O)[C@H](CCC(=O)O)NC(=O)[C@H](C)NC(=O)[C@H](CCCCN)NC(=O)[C@H](CCCCN)NC(=O)[C@H](CC(C)C)NC(=O)[C@H](CC(C)C)NC(=O)[C@H](CCC(=O)O)NC(=O)[C@H](CCC(=O)O)NC(=O)[C@@H](NC(C)=O)[C@@H](C)CC)C(N)=O [LP-65] (Ac-IEELLKKAEEQQKKNEEELKKLEK(Palmitoyl)-NH2) |  |  |  |  |  |  | extremely potent inhibitory activity |  |  |  | much lower active against T-20 resistant mutant strains than the LP-52 and LP-80 | 72.1 |  | 52 | 796 | extremely potent inhibitory activity |  |  |  | 63 |
